Source: PMC8837603, “Lapcin, a potent dual topoisomerase I/II inhibitor discovered by soil metagenome guided total chemical synthesis” (Nature Communications, 2022)
Entries after “also recorded” stand apart in the source; their conditions may differ.

How the values were obtained:
Human Topoisomerase I [1] = biological target: T1, Human Topoisomerase I (Homo sapiens, UniProt P11387); experiment: Human Topoisomerase I DNA relaxation assay; format: biochemical
T1 construct: purchased Inspiralis, UK
T1 sequence (P11387 1-765): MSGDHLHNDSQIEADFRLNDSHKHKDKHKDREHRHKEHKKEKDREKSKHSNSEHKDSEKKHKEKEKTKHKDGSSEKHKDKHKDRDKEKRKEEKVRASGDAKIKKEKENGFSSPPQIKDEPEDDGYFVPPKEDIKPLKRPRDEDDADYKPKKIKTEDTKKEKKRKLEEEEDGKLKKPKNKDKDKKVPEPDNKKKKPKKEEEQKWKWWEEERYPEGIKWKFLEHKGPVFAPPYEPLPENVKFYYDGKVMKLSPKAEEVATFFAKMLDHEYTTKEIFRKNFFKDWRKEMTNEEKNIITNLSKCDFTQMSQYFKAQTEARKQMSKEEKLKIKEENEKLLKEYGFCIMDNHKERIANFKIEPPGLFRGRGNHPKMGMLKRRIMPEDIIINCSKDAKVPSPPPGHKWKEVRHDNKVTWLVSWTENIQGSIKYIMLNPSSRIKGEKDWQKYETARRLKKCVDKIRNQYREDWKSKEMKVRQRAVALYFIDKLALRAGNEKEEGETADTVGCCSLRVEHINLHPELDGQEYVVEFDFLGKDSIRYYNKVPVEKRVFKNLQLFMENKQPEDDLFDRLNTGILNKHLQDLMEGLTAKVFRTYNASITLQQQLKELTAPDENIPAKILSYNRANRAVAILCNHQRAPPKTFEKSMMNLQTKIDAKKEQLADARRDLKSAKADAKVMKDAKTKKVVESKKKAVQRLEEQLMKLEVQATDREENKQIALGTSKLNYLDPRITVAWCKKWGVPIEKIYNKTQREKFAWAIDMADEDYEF
Experimental: All values were normalized to the negative control wells. […] All experiments were performed in triplicate (n = 3).

Human Topoisomerase I [2] = biological target: T1, Human Topoisomerase I; experiment: Topoisomerase I DNA cleavage assay; format: biochemical; conditions: supercoil pBR322, 30 min, 37 °C; nick DNA; two independent times
Experimental: Topoisomerase I/II cleavage assay: A commercial Human topoisomerase cleavage assay kit (Inspiralis, UK) was used in this study with a slight modification. Camptothecin (Sigma, USA) and Etoposide (Sigma, USA) were used as the positive control for topoisomerase I cleavage assay and topoisomerase II cleavage assay, respectively. The assay was performed according to the manufacture’s protocol. Briefly, 29 µL of the master mixture was prepared by adding 3 µL of 10 x assay buffer, 1 µL of 1 µg/µL supercoil pBR322, 1 µL of 30 mM ATP (only used in topoisomerase II cleavage assay), 1.5 µL serial diluted compounds (dissolved in DMSO) and H2O. Finally, 1 µL of 10 U/µL human topoisomerase I/II alpha was added to the reaction mixture. The reaction was incubated for 30 minutes at 37℃. After incubation, 3 µL of 2% (w/v) SDS and 1.5 µL of 10 mg/mL proteinase K was added. The reaction was mixed briefly and incubated for another 30 minutes at 37 ℃. The reaction was stopped by added 10 µL of H2O, 40 µL of STEB stop buffer and 40 µL of Chloroform/isoamyl alcohol (v:v, 24:1). The mixture was vortexed vigorously for 10 secs and centrifuged for 2 minutes. 20 µL of aqueous phase was loaded onto 1% (w/v) agarose gel and separated at 80 V for 2 hours in 0.5% TBE buffer. […]

[3] = system: Wheat germ Topoisomerase I; experiment: DNA intercalator assay / enzyme concentration dependence, Topo I; format: biochemical; conditions: unlike known DNA intercalators; supercoil pBR322, 30 min, 37 °C; two independent times
Source text: DNA intercalator assay: A commercial DNA unwinding assay kit (Inspiralis, UK) was used in this study with a slight modification. Ethidium bromide was used as intercalator positive control. The assay contains two steps: the first step is used to determine the minimum concentration of compounds that will inhibit the enzyme activity; the second step is used to determine whether compounds act as intercalator or inhibitor. Ethidium bromide was used as the intercalator positive control and supercoil pBR322 was used as the substrate. The assay mixture was set up on the ice. Briefly, the master mixture was prepared by adding 3 µL of […] wheat germ topoisomerase I assay buffer, 0.5 µL of 1 µg/µL supercoil pBR322, 1.5 uL serial diluted compounds (dissolved in DMSO). H2O was added to a final volume of 29 µL. Finally, 1 µL of 2 U/µL Wheat germ Topoisomerase I was added to the reaction mixture. The reaction was incubated for 30 minutes at 37℃. The reaction was stopped by added 20 µL of H2O, and 50 µL of butanol (water-saturated). The mixture was vortexed vigorously and centrifuged for 1 minute. The lower, aqueous layer was removed and added into a new tubes containing 50 µL STEB buffer and 40 µL of Chloroform/isoamyl alcohol (v:v, 24:1). The mixture was vortexed vigorously for 10 secs and centrifuge for 2 minutes. […]

Topo II = experiment: Enzyme concentration dependence, Topo II activity assay; format: biochemical; conditions: unlike known DNA intercalators; Supplementary Fig. 38
human cancer cell lines = experiment: MTT cell viability assay, whole cell line panel; format: cell-based
Experimental: An MTT (2-(4,5-dimethylthiazol-2-yl)−2,5-diphenyltetrazolium bromide) assay was used to determine the cytotoxicity of lapcin towards diverse cancer cell lines. Lapcin was dissolved in DMSO to make a 3.2 mg/mL working solution. For each cancer line detailed in Supplementary Table 5, cells at 80-90% confluency were counted and seeded in 96-well, flat bottom microplates and incubated at 37 °C with a 5% CO2 atmosphere. Outer wells were unused to avoid edge effects. After adhering for 24 h, the medium was sterilely aspirated and replaced with 100 µL of fresh medium containing lapcin or a control compound serially diluted at concentrations ranging from 8,000 to 0.00382 ng/mL. After 48 h (37 °C, 5% CO2), the medium was carefully removed and 110 µL of freshly prepared MTT solution (10 µL of 5 mg/mL MTT in PBS (pH 7.4) premixed with 100 µL of complete medium) was added to each well. After 3 h at 37 °C with 5% CO2, 100 µL of solubilization solution (40% DMF, 16% SDS and 2% acetic acid in H2O) was added to each well and precipitated formazan crystals were allowed to dissolve for 4 h. The absorbance of each well was then measured at 570 nm using a Tecan microplate reader.

`CCCCCCCCCCCC(O)CC(=O)N[C@@H](C)C(=O)N[C@@H](CO)C(=O)N[C@@H](C)C(=O)Nc1ccc(-c2nc(-c3nc(C(=O)N[C@@H](CC(N)=O)C(=O)Nc4ccc(C(=O)Nc5ccc(C(=O)Nc6ccc(C(=O)O)cc6)c(O)c5OC(C)C)cc4)cs3)cs2)cc1` (stereo partly drawn) [Lapcin, 4-(4-(4-((2S)-4-amino-2-(2'-(4-((2S)-2-((2S)-3-hydroxy-2-((2S)-2-(3-hydroxytetradecanamido)propanamido)propanamido)propanamido)phenyl)-[2,4'-bithiazole]-4-carboxamido)-4-oxobutanamido)benzamido)-2-hydroxy-3-isopropoxybenzamido)benzoic acid] was tested, and the “fold more potent than camptothecin, topoisomerase I” value (Human Topoisomerase I [1]) was 14 times, the IC50 (Human Topoisomerase I [1]; supercoiled pBR322, 30 min, 37 °C, gel, ethidium bromide, n = 3) was 2170 nM and the “accumulation of cleavage product, Topo I” value (Human Topoisomerase I [2]) was “did not observe the accumulation of a cleavage product”. The “dependence of activity on enzyme concentration, Topo I” value [3] was “strong dependence on enzyme concentration”, the “dependence of activity on enzyme concentration, Topo II” value (Topo II) was “strong dependence on enzyme concentration” and the “difference in IC50 between non-cancerous HEK293 and most susceptible cell lines” value (human cancer cell lines; Table 1 IC50s, therapeutic window) was “over 3 orders of magnitude”. For the same compound, the “potency relative to etoposide in cell lines” value (human cancer cell lines; all cell lines except NCI-H226) was “more potent than the topoisomerase II inhibitor etoposide”, the “cytotoxic potency (IC50) in words” value (human cancer cell lines; breast, lung, colon, bone and cervical cancer cell lines, MTT, 48 h) was “nM to pM IC50s; also recorded: potent human cancer cell line toxin; also recorded: nM to pM (IC50) inhibitor” and the “potency relative to camptothecin in cell lines” value (human cancer cell lines; exception of HCT116, HCC1806 and NCI-H226) was “more potent than the topoisomerase I inhibitor camptothecin”. The “correlation of activity with p53 expression” value (human cancer cell lines; reported p53 expression levels of the cell lines tested) was “general correlation between lapcin activity and reported p53 expression levels”.
